Assay results as given in paper PMC10291553, “Exploring Structure–Activity Relationships in Photodynamic Therapy Anticancer Agents Based on Ir(III)-COUPY Conjugates” (Journal of Medicinal Chemistry, 2023).
Where two headings read alike, the source gives them in different places.

What was measured:
SK-MEL-28 = assay: Photo- and cytotoxic activity determination (MTT), SK-MEL-28 cells; assay type: cell-based, human; details: normoxia; for SK-MEL-28 PI (phototherapeutic index), IC50 dark/IC50 irradiated: dark tested up to 100 μM
From the text: (§1) Having shown that the Ir(III)-COUPY conjugates can sensitize both type I and II ROS through spectroscopic techniques and readily internalize into living cells, their photocytotoxicity was screened in various cancer cell lines. This screening included two representative melanoma cell lines (human A375 and […] human SK-MEL-28) and cancer cells with resistance to the clinical drug cisplatin. For the latter, both sensitive and cisplatin-resistant ovarian cancer cells (A2780 and A2780cis) as well as HeLa cells, which also show a degree of chemoresistance to the platinum anticancer drug in vitro,[54] were used. For the determination of dark and light cytotoxicity, dose–response curves were assayed from both conditions to provide the correspondent IC50 values, which correspond to the concentration needed for inhibition of cell growth by 50%. Phototherapeutic index (PI) was calculated as the ratio of dark to light IC50 value for each compound.
A375, HeLa, and SK-MEL-28 cells were cultured in Dulbecco’s modified Eagle medium (DMEM) supplemented with 10% FBS, L-glutamine, and 1% penicillin–streptomycin. A2780 and A2780cis cells were grown in RPMI-1640 cell medium supplemented with 10% fetal bovine serum (FBS) and 2 mM L-glutamine. Acquired resistance to cisplatin in the A2780cis cell line was maintained by adding cisplatin 1 μM to culture medium every second passage. Cells were cultured in a humidified incubator at 310 K with 5% CO2 atmosphere and subcultured two or three times a week with appropriate densities and were confirmed to be mycoplasma-free using a standard Hoechst DNA staining method.
(§2) A2780, A2780cis, HeLa, A375, and SK-MEL-28 cells were maintained at logarithmic growth-phase and cultured in 96-well plates at a density of 5000 cells/well in complete medium for 24 h at 310 K, 5% CO2 in a humidified incubator. For hypoxia experiments, a hypoxia condition was set up by Tissue Culture Service at University of Murcia using nitrogen (N2) to displace O2 down to a minimum of 2% in a Forma Steri-Cycle i160 incubator (Thermo Fisher Scientific). Serial dilutions of the compounds were added at the final concentrations in the range of 0–100 μM in a final volume of 100 μL per well. A light-based treatment schedule was performed as follows: 1 h incubation with the compounds in the dark, followed by 1 h incubation under irradiation conditions by placing the Photoreactor EXPO-LED from Luzchem (Canada) fitted with green lamps (final light intensity applied of 1.5 mW/cm^2 at λmax = 520 nm) inside the CO2 incubator. All the cell culture plates subjected to light irradiation included untreated controls to verify that cell viability was not affected by light. Then, treatment-containing media was removed, and fresh media was added for a 48 h cell recovery period; the temperature throughout the experiment remained at 310 K. Dark control samples were placed in the same dark conditions and then kept incubated for 1 h in the dark in the humidified CO2 incubator. Medium was then aspirated by suction, cells were loaded with 50 μL of MTT solution (1 mg/mL) for additional 4 h and then removed, and 50 μL of DMSO was added to solubilize the purple formazan crystals formed in active cells. The absorbance was measured at 570 nm using a microplate reader (FLUOstar Omega), and the IC50 values were calculated based on the inhibitory rate curves using the following equation [drawing 4] 4 where I represents the percentage inhibition of viability observed, Imax is the maximal inhibitory effect, IC50 is the concentration that inhibits 50% of maximal growth, C is the concentration of the treatment, and n is the slope of the semi-logarithmic dose–response sigmoidal curves. The non-linear fitting was performed using SigmaPlot 14.0 software. All experiments were performed in three independent studies with n = 3 replicates per concentration level. For a detailed phototoxicity procedure, ref ([43]) includes technical explanations.

[1] = tested on: A375, SK-MEL-28, HeLa, A2780 and A2780cis cancer cells; assay: Photo- and cytotoxicity, statements across the studied cancer cell lines; assay type: cell-based; details: for IC50: absence of light, regardless of the cell line, read-out: dark IC50 in the studied cancer cell lines
From the text: as §1
as §2, with “4 where I represents the percentage inhibition of viability observed, Imax is the maximal inhibitory effect, IC50 is the concentration that inhibits 50% of maximal growth, C is the concentration of the treatment, and n is the slope of the semi-logarithmic dose–response sigmoidal curves. The non-linear fitting was performed using SigmaPlot 14.0 software. All experiments were performed in three independent studies with n = 3 replicates per concentration level. For a detailed phototoxicity procedure, ref ([43]) includes technical explanations.” left out

A2780cis cells = assay: ROS photogeneration in cells (DCFH-DA probe); assay type: cell-based; details: 10 μM; for ROS levels after 520 nm light, normoxia: normoxia 21% O2, 520 nm, 1 h; for ROS levels in the absence of light, normoxia: dark
Method: ROS levels were determined using the 2′-7′dichlorofluorescein diacetate (DCFH-DA) probe. A2780cis cells were seeded onto 96-well black plates at 2 × 10^4cells/well for 24 h in a humidified CO2 incubator either in normoxia (21% O2) or hypoxia (2% O2). Tested compounds were then administered in cell media for the allowed time. Treatments were then removed, and cells were stained with 10 μM of DCFH-DA for 0.5 h. After staining, cells were washed with PBS twice and irradiated for 1 h with LED source light from Luzchem photoreactor (Canada) fitted with green lamps (final light intensity applied of 1.5 mW/cm^2 at λmax = 520 nm). Fluorescence readings were performed in FLUOstar Omega (λexc = 488 nm and λem = 530 ± 30 nm). Non-irradiated plates were used for dark conditions, whereas treated, unstained cells were used to subtract basal fluorescence of compounds and correct fluorescence readings. Unstained cells served as blank. Three independent experiments were performed with n = 3 replicates.

A2780cis MCTS = assay: 3D multicellular tumor spheroid growth inhibition; assay type: cell-based; details: 10 μM, 4 h incubation; for tumor growth of A2780cis spheres after PDT treatment: 1 h 520 nm on day 3, followed 7 days; for spheroid shrinkage compared to irradiated controls: 1 h 520 nm
Method: Briefly, a single suspension of A2780cis cells at a density of 5 × 10^3 cells/well in complete RPMI medium was dispatched onto 96-well Corning microplates with ultralow attachment surface coating. The plates were covered and transferred to an incubator at 310 K with a 5% CO2 atmosphere. After 3 days post-seeding, uniform MCTSs were formed, which was confirmed using an inverted Zeiss AXIO observer 7 microscope. Cell media of MCTSs was changed by replacing 50% with fresh cell media and allowed to grow for 3 days. On day 3, MTCS was incubated with tested agents (10 μM) for 4 h and then irradiated with 520 nm light for 1 h. Treatments were then carefully removed, and fresh media was added. The integrity, radius, size, and volume of the MCTSs were monitored using a DMi1 inverted phase contrast microscope (Leica Microsystems) over 7 days. The radius of the tumorspheres was measured using Fiji software, and the volume was calculated using the following equation: V = 4/3πr^3.

[2] = 1 h incubation + 1 h green light 520 nm, 1.5 mW cm^–2, 48 h drug-free medium, read-out: SK-MEL-28 light IC50
[3] = kept in the dark, 2 h treatment, 48 h drug-free medium, read-out: SK-MEL-28 dark IC50
[4] = Homo sapiens, SK-MEL-28, 1 h incubation + 1 h green light 520 nm, 1.5 mW cm^–2, 48 h drug-free medium, read-out: SK-MEL-28 light IC50
[5] = Homo sapiens, SK-MEL-28, kept in the dark, 2 h treatment, 48 h drug-free medium, read-out: SK-MEL-28 dark IC50

With CCCCn1c2[n+](c3cc(C(=O)NCCCNC(=O)C[n+]4ccc(/C(C#N)=C5/C=C(C)c6cc7c8c(c6O5)CCCN8CCC7)cc4)ccc31)[Ir-3]13([c]4ccccc4-c4[nH]c5ccccc5[n+]41)([c]1ccccc1-c1[nH]c4ccccc4[n+]13)[n+]1c-2ccc2ccccc21 [3c] the IC50 (SK-MEL-28; 520 nm, read-out: SK-MEL-28 Light 520 nm IC50 (microM) Normoxia) was > 100 µM, the IC50 (SK-MEL-28; [2]) was > 100 µM and the IC50 (SK-MEL-28; dark, read-out: SK-MEL-28 Dark IC50 (microM) Normoxia) was > 100 µM. For the same compound, the IC50 (SK-MEL-28; [3]) was > 100 µM, the IC50 [1] was > 100 µM and the “ROS levels after 520 nm light, normoxia” value (A2780cis cells) was “strong fluorescence signal”. The “tumor growth of A2780cis spheres after PDT treatment” value (shortened to “tumor growth of A2780cis spheres”) (A2780cis MCTS) was “did not show significant tumor inhibition effects”.

In the case of CCCCn1c2[n+](c3cc(C(=O)NC[C@H]4CC[C@H](C(=O)NCCCNC(=O)C[n+]5ccc(/C(C#N)=C6/C=C(C)c7ccc(N(CC)CC)cc7O6)cc5)CC4)ccc31)[Ir-3]13([c]4ccccc4-c4[nH]c5ccccc5[n+]41)([c]1ccccc1-c1[nH]c4ccccc4[n+]13)[n+]1c-2ccc2ccccc21 [3e], the “SK-MEL-28 PI (phototherapeutic index), IC50 dark/IC50 irradiated” value (“SK-MEL-28 PI (phototherapeutic index)” below) (SK-MEL-28; 520 nm) is reported as > 13, the IC50 (SK-MEL-28; [2]) is reported as 7.6 ± 0.9 µM and the IC50 (SK-MEL-28; [3]) is reported as > 100 µM. The “ROS levels after 520 nm light, normoxia” value (A2780cis cells) was “strong fluorescence signal”, the “ROS levels in the absence of light, normoxia” value (shortened to “ROS levels in the absence”) (A2780cis cells) was “slightly increased ROS levels” and the “spheroid shrinkage compared to irradiated controls” value (A2780cis MCTS) was “statistically significant shrank”. For the same compound, the “tumor growth of A2780cis spheres” value (A2780cis MCTS) was “effectively blocked tumoral growth”.

With CCCCn1c2[n+](c3cc(C(=O)OC)ccc31)[Ir-3]13([c]4ccccc4-c4[nH]c5ccccc5[n+]41)([c]1ccccc1-c1[nH]c4ccccc4[n+]13)[n+]1c-2ccc2ccccc21 [2a] the “SK-MEL-28 PI (phototherapeutic index)” value (SK-MEL-28; 520 nm) was > 36, the IC50 (SK-MEL-28; [2]) was 2.8 ± 0.3 µM and the IC50 (SK-MEL-28; [3]) was > 100 µM.

In the case of CCCCn1c2[n+](c3cc(C(=O)NCCCNC(=O)C[n+]4ccc(/C(C#N)=C5/C=C(C)c6ccc(N(CC)CC)cc6O5)cc4)ccc31)[Ir-3]13([c]4ccccc4-c4[nH]c5ccccc5[n+]41)([c]1ccccc1-c1[nH]c4ccccc4[n+]13)[n+]1c-2ccc2ccccc21 [3a], the “SK-MEL-28 PI (phototherapeutic index)” value (SK-MEL-28; 520 nm) is reported as > 67, the IC50 (SK-MEL-28; [2]) is reported as 1.5 ± 0.1 µM and the IC50 (SK-MEL-28; [3]) is reported as > 100 µM. For the same compound, the “ROS levels after 520 nm light, normoxia” value (A2780cis cells) was “strong fluorescence signal”, the “ROS levels in the absence” value (A2780cis cells) was “slightly increased ROS levels” and the “spheroid shrinkage compared to irradiated controls” value (A2780cis MCTS) was “statistically significant shrank”. For the same compound, the “tumor growth of A2780cis spheres” value (A2780cis MCTS) was “effectively blocked tumoral growth”.

For CC1=C/C(=C(\C#N)c2cc[n+](C)cc2)Oc2c1cc1c3c2CCCN3CCC1 [1c], the IC50 (SK-MEL-28; [4]) was 0.2 ± 0.01 µM, the IC50 (SK-MEL-28; [5]) was 12 ± 1 µM and the “SK-MEL-28 PI (phototherapeutic index)” value (SK-MEL-28; 520 nm) was 60. The IC50 [1] was 5 to 26 µM.

In the case of CC1=C/C(=C(\C#N)c2cc[n+](C)cc2)Oc2ccccc21 [1b], the IC50 (SK-MEL-28; Homo sapiens, SK-MEL-28, 520 nm, read-out: SK-MEL-28 Light 520 nm IC50 (microM) Normoxia) is reported as > 100 µM, the IC50 (SK-MEL-28; [4]) is reported as > 100 µM and the IC50 (SK-MEL-28; Homo sapiens, SK-MEL-28, dark, read-out: SK-MEL-28 Dark IC50 (microM) Normoxia) is reported as > 100 µM. The IC50 (SK-MEL-28; [5]) was > 100 µM and the “antiproliferative activity after light irradiation” value ([1]; 520 nm, investigated cancer cells) was “did not display antiproliferative activity after light irradiation”.

With CCCCn1c2[n+](c3cc(C(=O)NCCCCCC(=O)NCCCNC(=O)C[n+]4ccc(/C(C#N)=C5/C=C(C)c6ccc(N(CC)CC)cc6O5)cc4)ccc31)[Ir-3]13([c]4ccccc4-c4[nH]c5ccccc5[n+]41)([c]1ccccc1-c1[nH]c4ccccc4[n+]13)[n+]1c-2ccc2ccccc21 [3d] the “SK-MEL-28 PI (phototherapeutic index)” value (SK-MEL-28; 520 nm) was > 40, the IC50 (SK-MEL-28; [2]) was 2.5 ± 0.2 µM and the IC50 (SK-MEL-28; [3]) was > 100 µM. For the same compound, the “ROS levels after 520 nm light, normoxia” value (A2780cis cells) was “strong fluorescence signal”, the “ROS levels in the absence” value (A2780cis cells) was “slightly increased ROS levels” and the “tumor growth of A2780cis spheres” value (A2780cis MCTS) was “effectively blocked tumoral growth”.

CCCCn1c2[n+](c3cc(C(=O)NCCCNC(=O)C[n+]4ccc(/C(C#N)=C5/C=C(C)c6ccccc6O5)cc4)ccc31)[Ir-3]13([c]4ccccc4-c4[nH]c5ccccc5[n+]41)([c]1ccccc1-c1[nH]c4ccccc4[n+]13)[n+]1c-2ccc2ccccc21 [3b] was tested, and the “SK-MEL-28 PI (phototherapeutic index)” value (SK-MEL-28; 520 nm) was > 48, the IC50 (SK-MEL-28; [2]) was 2.1 ± 0.2 µM and the IC50 (SK-MEL-28; [3]) was > 100 µM. For the same compound, the “ROS levels after green-light irradiation, hypoxia” value (A2780cis cells; hypoxia 2% O2, 520 nm) was “a slight increase in ROS levels” and the “tumor growth of A2780cis spheres” value (A2780cis MCTS) was “did not show significant tumor inhibition effects”.

CCN(CC)c1ccc2c(c1)O/C(=C(/C#N)c1cc[n+](C)cc1)C=C2C [1a] was tested, and the IC50 (SK-MEL-28; [4]) was 1.2 ± 0.1 µM, the IC50 (SK-MEL-28; [5]) was > 100 µM and the “SK-MEL-28 PI (phototherapeutic index)” value (SK-MEL-28; 520 nm) was > 86. The “fold differences in bioactivity upon irradiation” value ([1]; melanoma cells, 520 nm) was “more than 86 fold”.
